# Source: ChEMBL document CHEMBL1201862, “PubChem BioAssay data set” (2004)
#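 Following 48 hours of exposure in 96-well plates, responses at five concentrations were used to interpolate endpoints linearly. GI50 = concentration required for 50% inhibition of growth.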 Active and inactive are the calls of the source. Rule as the data show it: active = GI50 up to about 1.1 µM and inactive = higher.
# How the values were obtained:
# Test in all cases: growth of human tumour cells (NCI), 48 h
# [1] = tested on: CCRF-CEM
# [2] = tested on: MDA-N
# [3] = tested on: SF-268
# [4] = tested on: M14
# [5] = tested on: RPMI-8226
# [6] = tested on: LOX IMVI
# [7] = tested on: SW-620
# [8] = tested on: A549
# [9] = tested on: U-251
# [10] = tested on: SK-OV-3
# [11] = tested on: KM12
# [12] = tested on: IGROV-1
# [13] = tested on: NCI-H23
# [14] = tested on: SK-MEL-2
# [15] = tested on: MDA-MB-231
# [16] = tested on: T47D
# [17] = tested on: OVCAR-3
# [18] = tested on: SR
# [19] = tested on: UACC-62
# [20] = tested on: OVCAR-4
# [21] = tested on: DU-145
# [22] = tested on: BT-549
# [23] = tested on: OVCAR-8
# [24] = tested on: NCI-H460
# [25] = tested on: NCI-H522
# [26] = tested on: NCI/ADR-RES
# [27] = tested on: RXF 393
# [28] = tested on: HL-60
# [29] = tested on: HT-29
# [30] = tested on: UACC-257
# [31] = tested on: MOLT-4
# [32] = tested on: 786-0
# [33] = tested on: TK-10
# [34] = tested on: UO-31
# [35] = tested on: SK-MEL-28
# [36] = tested on: SNB-19
# [37] = tested on: K562
# [38] = tested on: CAKI-1
# [39] = tested on: HCT-116
# [40] = tested on: HCT-15
# [41] = tested on: MCF7
# [42] = tested on: SF-295
# [43] = tested on: HOP-92
# [44] = tested on: SF-539
# [45] = tested on: MDA-MB-435
# [46] = tested on: Hs-578T
# [47] = tested on: PC-3
# [48] = tested on: OVCAR-5
# [49] = tested on: SNB-75
# [50] = tested on: EKVX
# [51] = tested on: SK-MEL-5
# [52] = tested on: HCC 2998
# [53] = tested on: COLO 205
# [54] = tested on: A498
# [55] = tested on: NCI-H226
# [56] = tested on: ACHN
# [57] = tested on: SN12C
# [58] = tested on: HOP-62
smiles,measurement,setting,value
C=CCN1C(=O)/C(=C/c2ccc(OC)cc2)NC1=S,GI50,[1],< 0.01 µM (active)
same,GI50,[2],33.8 µM (inactive)
same,GI50,[3],> 100 µM (inactive)
same,GI50,[4],53.3 µM (inactive)
same,GI50,[5],35.2 µM (inactive)
same,GI50,[6],56.1 µM (inactive)
same,GI50,[7],> 100 µM (inactive)
same,GI50,[8],34.8 µM (inactive)
same,GI50,[9],82.2 µM (inactive)
same,GI50,[10],> 100 µM (inactive)
same,GI50,[11],97.7 µM (inactive)
same,GI50,[12],> 100 µM (inactive)
same,GI50,[13],58.3 µM (inactive)
same,GI50,[14],> 100 µM (inactive)
same,GI50,[15],> 100 µM (inactive)
same,GI50,[16],42.2 µM (inactive)
same,GI50,[17],> 100 µM (inactive)
same,GI50,[18],29.3 µM (inactive)
same,GI50,[19],97.7 µM (inactive)
same,GI50,[20],54.5 µM (inactive)
same,GI50,[21],> 100 µM (inactive)
same,GI50,[22],50.2 µM (inactive)
same,GI50,[23],25.7 µM (inactive)
same,GI50,[24],> 100 µM (inactive)
same,GI50,[25],41.6 µM (inactive)
same,GI50,[26],> 100 µM (inactive)
same,GI50,[27],37.2 µM (inactive)
same,GI50,[28],0.0355 µM (active)
same,GI50,[29],57.9 µM (inactive)
same,GI50,[30],27.9 µM (inactive)
same,GI50,[31],4.59 µM (inactive)
same,GI50,[32],> 100 µM (inactive)
same,GI50,[33],> 100 µM (inactive)
same,GI50,[34],61.4 µM (inactive)
same,GI50,[35],> 100 µM (inactive)
same,GI50,[36],> 100 µM (inactive)
same,GI50,[37],38.5 µM (inactive)
same,GI50,[38],> 100 µM (inactive)
same,GI50,[39],48 µM (inactive)
same,GI50,[40],> 100 µM
same,GI50,[41],40.9 µM (inactive)
same,GI50,[42],54.2 µM (inactive)
same,GI50,[43],14.5 µM (inactive)
same,GI50,[44],> 100 µM (inactive)
same,GI50,[45],57.3 µM (inactive)
same,GI50,[46],> 100 µM (inactive)
same,GI50,[47],84.5 µM (inactive)
same,GI50,[48],> 100 µM (inactive)
same,GI50,[49],> 100 µM (inactive)
same,GI50,[50],18.3 µM (inactive)
same,GI50,[51],30.5 µM (inactive)
same,GI50,[52],> 100 µM (inactive)
same,GI50,[53],> 100 µM (inactive)
same,GI50,[54],60.4 µM (inactive)
same,GI50,[55],37.9 µM (inactive)
same,GI50,[56],> 100 µM (inactive)
same,GI50,[57],> 100 µM (inactive)
same,GI50,[58],> 100 µM (inactive)
